Laboratory results: patent publication US7854946B1, “Anti-inflammatory and anti-HIV compositions and methods of use” (Iowa State University Research Foundation, Inc., priority 2007, dated 2010)

How the values were obtained:
Type in all cases: cell-based, mouse
[1] = system: PGE2 production in LPS-induced macrophages; test: PGE2 assay in LPS-induced RAW264.7 macrophages; details: pure compound in cell media, 1 μg/ml LPS, 8 hours
Method: RAW264.7 macrophages were purchased from the American Type Culture Collections (ATCC; […] Cells were plated at a density of 1.0×10^5 cells/well in 24-well cell culture plates and allowed to attach overnight. […] Louis, Mo.) and solvent alone, dimethylsulfoxide (DMSO) (Sigma, St. Louis, Mo.), or H. gentianoides extract or fraction simultaneously for 8 hours. Cell supernatants were collected on ice, and stored in a −70° C. freezer for use in the PGE2 assay. […] Four controls were included in each treatment: media alone, media and DMSO, media and LPS, and media and LPS and DMSO. In addition, 10 μM quercetin was used as a positive control. Since H. perforatum contains light-activated compounds, the H. gentianoides extract was tested in both light-activated and dark conditions initially to determine if the activity was dependent on light activation. […] The supernatant samples were assayed with a Prostaglandin E2 EIA kit (GE Biosciences, Piscataway, N.J.) according to manufacturer's instructions. […] Data is shown as mean percent reduction in LPS-induced PGE2 levels±the standard error as compared to the media+LPS+DMSO control. Statistical significance was determined by an F-protected two-way ANOVA followed by a Tukey-Kramer test for multiple comparisons (Snedecor, G. W., Cochran, W. G., Eds. (1989). Statistical Methods, 8th ed. University Press: Ames, Iowa). For cytotoxicity, data are represented as mean % cytotoxicity±standard error as compared to the media+DMSO control. Statistical significance was determined by an F-protected two-way ANOVA followed by a Dunnett-Hsu test for multiple comparisons (Dunnett C. W. (1955). “A multiple comparison procedure for comparing several treatments with a control.” Journal of the American Statistical Association. 50:1096-1121). […] The ability of H. gentianoides extracts to reduce the inflammatory response was assessed by quantifying PGE2 production in LPS-induced macrophages. […]

RAW264.7 macrophages = test: CellTiter96 cytotoxicity assay in RAW264.7 macrophages
Method: CellTiter96® Aqueous One Solution cell proliferation assay (Promega Corporation, Madison, Wis.) was used as previously described in Schmitt et al. with an 8-hour treatment incubation instead of 24-hour treatment incubation to parallel the anti-inflammatory studies (Schmitt, L. A., et al., (2006)). Following the 8 hour incubation, treatment solutions were removed and fresh media and Celltiter96® dye were added for 3 hours and 15 minutes (Schmitt, L. A., et al., (2006)). The metabolized dye solutions were transferred to 96-well plates for absorbance measurement at 490 nm. The number of viable cells for each treatment was compared to the media+DMSO solvent control. Treatment with 20 μM hypericin was used as a positive control. Data is shown as mean percent reduction in LPS-induced PGE2 levels±the standard error as compared to the media+LPS+DMSO control. Statistical significance was determined by an F-protected two-way ANOVA followed by a Tukey-Kramer test for multiple comparisons (Snedecor, G. W., Cochran, W. G., Eds. (1989). Statistical Methods, 8th ed. University Press: Ames, Iowa). For cytotoxicity, data are represented as mean % cytotoxicity±standard error as compared to the media+DMSO control. Statistical significance was determined by an F-protected two-way ANOVA followed by a Dunnett-Hsu test for multiple comparisons (Dunnett C. W. (1955). “A multiple comparison procedure for comparing several treatments with a control.” Journal of the American Statistical Association. 50:1096-1121).

cyclooxygenase-2 = test: Western blot of COX-2 protein in LPS-induced RAW 264.7 macrophages; details: 8 hour treatment, dose not given
Method: FIG. 9. […] After an 8 hour treatment with lipopolysaccharide (LPS) and H. gentianoides fractions, a protein extraction was performed on the RAW 264.7 macrophages. Separation of the proteins was carried out on a discontinuous (4% stacking, 10% resolving) sodium dodecyl sulfate-polyacrylamide (30% acrylamide/bis solution) (BioRad; Hercules, Calif.) gel, followed by transfer to a PVDF membrane (GE Healthcare; Piscataway, N.J.) at 100V for 2.5 hours. COX-2 rabbit polyclonal antibody (Santa Cruz Biotechnology, Santa Cruz, Calif.) was diluted 1:1000 in 5% milk Tris-buffered saline with 0.5% Tween-20 (TBS-T). The secondary antibody (goat, anti-rabbit IgG, HRP conjugated, Santa Cruz Biotechnology; Santa Cruz, Calif.) was diluted 1:1000 in 5% milk in TBS-T. Detection was visualized on blue sensitive autoradiographic film (Marsh Bioproducts; Rochester, N.Y.) with a chemiluminescence (ECLplus) detection kit (GE Healthcare; Piscataway, N.J.).
After an 8 hour treatment with lipopolysaccharide (LPS) and H. gentianoides fractions, RAW 264.7 cells were rinsed twice with ice cold 1× phosphate buffered saline (PBS). […] The protein concentration in each lysate was determined using the bicinchonic acid and copper sulfate protein assay (Sigma; St. Louis, Mo.). […]

cyclooxygenase-1 = test: Western blot of COX-1 protein in LPS-induced RAW 264.7 macrophages; details: 8 hour treatment

| SMILES | lowest tested dose with significant reduction of PGE2 concentrations [1] [µM] | cytotoxicity (RAW264.7 macrophages; dose of 100 μM) | cyclooxygenase-2 enzyme (cyclooxygenase-2) | doses at which significant cytotoxicity stops (RAW264.7 macrophages; RAW264.7 macrophages, tested 0.5-100 μM) [µM] | cyclooxygenase-1 protein (cyclooxygenase-1) | tested dose from which cytotoxicity is significant (RAW264.7 macrophages; RAW264.7 macrophages) [µM] |
| --- | --- | --- | --- | --- | --- | --- |
| CC(C)=CCc1c(O)c(CC2=C(O)C(C)=C(O)C(CC=C(C)C)(C(=O)C(C)C)C2=O)c(O)c(C(=O)C(C)C)c1O (centres unmarked) [hyperbrasilol C] | 10 | no significant cytotoxicity |  |  |  |  |
| Cc1c(O)c(CC2=C(O)C(C)(C)C(=O)C(C(=O)C(C)C)=C2O)c(O)c(C(=O)C(C)C)c1O [saroaspidin A] | 2 |  | reduces | ≤ 10 | does not appear to be affected |  |
| CC(C)=CCc1c(O)c(CC2=C(O)C(C)(C)C(=O)C(C(=O)C(C)C)=C2O)c(O)c(C(=O)C(C)C)c1O [uliginosin A] | 10 |  |  |  |  | 100 |
